Legend:
Format in all cases: biochemical
recombinant mouse Acot13 [1] = target: T1, recombinant mouse Acot13 (Mus musculus, UniProt Q9CQR4); test: thioesterase activity assay
T1 sequence (Q9CQR4 1-140): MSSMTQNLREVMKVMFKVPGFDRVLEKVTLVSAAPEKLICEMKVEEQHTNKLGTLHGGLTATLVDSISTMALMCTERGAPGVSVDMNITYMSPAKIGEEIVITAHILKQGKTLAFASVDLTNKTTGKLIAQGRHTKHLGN

recombinant mouse Acot13 [2] = target: T1, recombinant mouse Acot13; test: thioesterase activity assay; conditions: read-out: % inhibition at 10 mM
Acot2 = target: T2, Acot2 (Mus musculus, UniProt Q9QYR9); test: thioesterase activity in liver mitochondria overexpressing Acot2; conditions: read-out: % inhibition at 10 mM
T2 sequence (Q9QYR9 43-453): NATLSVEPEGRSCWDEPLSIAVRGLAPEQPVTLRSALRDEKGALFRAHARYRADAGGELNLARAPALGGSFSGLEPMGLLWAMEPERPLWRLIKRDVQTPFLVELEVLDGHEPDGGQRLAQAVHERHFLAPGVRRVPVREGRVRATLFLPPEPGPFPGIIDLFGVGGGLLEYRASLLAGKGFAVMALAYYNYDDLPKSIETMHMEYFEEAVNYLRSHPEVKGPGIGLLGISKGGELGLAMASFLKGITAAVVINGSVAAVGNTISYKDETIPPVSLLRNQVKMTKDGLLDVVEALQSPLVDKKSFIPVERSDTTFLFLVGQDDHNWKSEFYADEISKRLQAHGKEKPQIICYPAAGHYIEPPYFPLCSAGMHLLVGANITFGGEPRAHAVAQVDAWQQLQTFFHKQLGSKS

Row | SMILES | IC50 (recombinant mouse Acot13 [1]) [µM] | inhibition at 10000 µM (recombinant mouse Acot13 [2]) [%] | inhibition at 10000 µM (Acot2) [%]
1 | CC(C)(COP(=O)(O)OP(=O)(O)OC[C@H]1O[C@@H](n2cnc3c(N)ncnc32)[C@H](O)[C@@H]1OP(=O)(O)O)[C@@H](O)C(=O)NCCC(=O)NCCS [CoA] | ~35 | – | –
2 | Nc1ncnc2c1ncn2[C@@H]1O[C@H](COP(=O)(O)OP(=O)(O)OP(=O)(O)O)[C@@H](O)[C@H]1O [ATP] | – | ~20 | ~20
3 | Nc1ncnc2c1ncn2[C@@H]1O[C@H](COP(=O)(O)OP(=O)(O)O)[C@@H](O)[C@H]1O [ADP] | – | ~20 | ~20

From publication doi:10.1101/705327v1 (biorxiv, 2019)
